Experimental data taken from patent US20080089884A1, “Compositions and methods for the modulation of detrusor activity” (priority 2006, published 2008).

Legend:
urinary retention = details: randomized placebo controlled trials; cited from earlier work
[1] = tested on: primary rat detrusor muscle cultures; type: cell-based; details: 1 μg/ml, bladder smooth muscle cells, data not shown
Description: Tissue culture. Primary bladder muscle cultures were derived from newborn Sprague-Daley rats (Charles River; Wilmington, Mass.). The bladders were harvested, minced and added to 3 ml dissociation solution containing 0.5 mg/ml collagenase, 0.5 mg/ml elastase, 2 μg/ml DNAse (Worthington, Lakewood, N.J.) and 1 mg/ml soybean trypsin inhibitor (Gibco, Carlsbad, Calif.). The tissue was triturated at 15 minute intervals for 45 minutes using fire polished pasteur pipets. The cell solution was filtered through a 40 μm cell strainer and spun at 1000 rpm for 5 minutes. […] The cell number was determined and cells were plated at a density of 25,000 cells/cm2 in poly-L-lysine coated (P-6282, Sigma) 12-well plates (#3513, Corning, Corning, N.Y.) for biochemical and flow cytometry studies and on plastic 8-well chamber slides (#354108, BD Bioscience, San Jose, Calif.) for immunohistochemistry or TUNEL staining. […]
Apoptosis detection. […] Following treatment with rMIF, cells were analyzed using a kit (PF032, Calbiochem, San. Diego, Calif.) to separate apoptotic and necrotic cells on flow cytometry. […] Cells were analyzed using a Becton Dickenson FACS caliber flow cytometer with collection and analysis of data performed using Becton Dickinson CELLQuest software. TUNEL staining was detected using a kit (Roche) with DAB microscopy of cells grown 5-7 days in 8-well chamber slides. […]

[2] = tested on: incontinence due to detrusor over activity with DHIC; details: cited from earlier work
[3] = tested on: bladder function, men with BPH; details: cited from earlier work
[4] = tested on: MIF protein release from rat bladder muscle culture cells; test: MIF ELISA of supernatants from rat bladder muscle cultures; type: cell-based; details: TNF-α 50 ng/ml for 24 hours, 3 separate cultures
Description: Tissue culture. Primary bladder muscle cultures were derived from newborn Sprague-Daley rats (Charles River; Wilmington, Mass.). The bladders were harvested, minced and added to 3 ml dissociation solution containing 0.5 mg/ml collagenase, 0.5 mg/ml elastase, 2 μg/ml DNAse (Worthington, Lakewood, N.J.) and 1 mg/ml soybean trypsin inhibitor (Gibco, Carlsbad, Calif.). The tissue was triturated at 15 minute intervals for 45 minutes using fire polished pasteur pipets. The cell solution was filtered through a 40 μm cell strainer and spun at 1000 rpm for 5 minutes. The supernatant was aspirated and cells resuspended in DMEM-F/12 medium containing 1% FBS, 1% N-2 supplement and 1% Penicillin/Streptomycin (Gibco). The cell number was determined and cells were plated at a density of 25,000 cells/cm2 in poly-L-lysine coated (P-6282, Sigma) 12-well plates (#3513, Corning, Corning, N.Y.) for biochemical and flow cytometry studies and on plastic 8-well chamber slides (#354108, BD Bioscience, San Jose, Calif.) for immunohistochemistry or TUNEL staining. Cells were maintained at 37° C. and 5% CO2 in a humidified chamber. The presence of 1% FBS was required for the success of initial plating. […]
MIF ELISA. […] MIF concentrations were calculated by extrapolation from a quadratic standard curve using human rMIF (range: 0-12 ng/ml, sensitivity: 150 pg/ml).

[5] = tested on: post-void residual in ambulatory older women; details: estrogen users, 204 ambulatory women, mean age 79 years; cited from earlier work

CC(C[N+](C)(C)C)OC(N)=O (stereo not drawn) [Bethanechol chloride]
clinically-relevant outcomes (urinary retention): does not improve clinically-relevant outcomes

C[C@@H]1C[C@@H]([C@H](O)CC2CC(=O)NC(=O)C2)C(=O)[C@@H](C)C1 [cyclohexamide]
apoptosis or necrosis induced by cyclohexamide alone [1]: does not induce apoptosis or necrosis

CCN(CC)CC#CCOC(=O)C(O)(c1ccccc1)C1CCCCC1 (stereo not drawn) [oxybutynin]
decrease in daily incontinence frequency ([2]; intention-to-treat, 64 subjects on immediate-release oxybutynin started at 2.5 mg and titrated): 68% | evaluable subjects with no end-study leakage, impaired contractility ([2]; on oxybutynin, 9/19 subjects): 47% | evaluable subjects with no end-study leakage, normal contractility ([2]; on oxybutynin, 25/35 subjects): 71% | subjects with no incontinence episodes on the end-study bladder diary ([2]; subjects randomized to oxybutynin): 34/64

CC(C)[N+](C)(CCOC(=O)C1c2ccccc2Oc2ccccc21)C(C)C [propantheline]
acute urinary retention [3]: 5/6

TNF-α
increase in MIF protein levels detectable in the supernatant [4]: approximately 30%

estrogen
mean PVR [5]: 39.3 mL
